Data from PubChem BioAssay (NCI).
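Each compound was tested at five concentrations against cells in 96-well plates for 48 hours. GI50 is the concentration that inhibits growth by half. TGI: total growth inhibition.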

test system: MDA-MB-468 breast; assay: NCI anticancer screen, dose series, 48 h

SMILES | GI50 | TGI
O=C(NC(=S)Nc1cc(Cl)ccc1O)c1cccc(Br)c1 | 5250 nM | > 100000 nM
Nc1c(C(=O)Nc2cccc(Cl)c2Cl)sc2nc3c(cc12)C(=O)CCC3 | 786 nM | > 100000 nM
COc1ccc2ccc3oc([N+](=O)[O-])cc3c2c1 | 168 nM | 381 nM
C[C@@H](Nc1nc(Nc2ccc(F)c(Cl)c2)nc2ccccc12)C1CC1 | 1350 nM | 3740 nM
CC(=O)c1nc2ccccc2n1CC(=O)c1cccc(Cl)c1 | 328 nM | –
C=CC(COC(c1ccccc1)(c1ccccc1)c1ccccc1)N(CC)CC (stereo not given) | 2430 nM | 6750 nM
Cn1cc(C2=C(N3CCOCC3)C(=O)NC2=O)c2ccccc21 | > 25000 nM | > 25000 nM
Oc1ccc(N=Nc2ccccn2)c(O)c1 | 681 nM | 4650 nM
Cc1cc(Nc2cc(N)ncn2)c(=O)n2c1C(=O)NC21CCCCC1 | 94900 nM | > 100000 nM
COc1ccc(-c2nn(-c3ccc(NC(=O)Nc4ccc(Cl)c(C(F)(F)F)c4)cc3)cc2-c2ccncc2)cc1Cl | 1180 nM | 3110 nM
CCCCCCCCCCCCCCCC1=NC(C)(C)CN1C(C)C | 1320 nM | 2660 nM
CC(=O)c1cc(O)c2ccccc2c1O | 17500 nM | 33400 nM
O=c1ccc2nc(-c3ccccn3)nn(-c3ccccc3)c-2c1 | 1440 nM | 3450 nM
CC[C@H](C)C(=O)O[C@H]1C[C@H](O)C=C2C=C[C@H](C)[C@H](CC[C@@H](O)C[C@@H](O)CC(=O)O)[C@H]21 | > 100000 nM | > 100000 nM
CCCCCn1c(C)cc(/C=C\c2ccc3cc(C)ccc3[n+]2C)c1C | 13.3 nM | 52.3 nM
CC1(C)C(=O)/C(=C\c2cccnc2)C[C@]2(C)[C@H]3CC[C@@H]4[C@@H](C(=O)/C=C/c5ccncc5)CC[C@@]4(C)[C@]3(C)CC[C@@H]12 | 1720 nM | 3670 nM
COc1ccc2nc3cc(Cl)ccc3c(NCCNc3c4ccc(Cl)cc4nc4ccc(OC)cc34)c2c1 | 1800 nM | 3780 nM
CC#Cc1nc(Nc2cc(C)[nH]n2)c2ccccc2n1 | 2470 nM | 6400 nM
Nc1ncc(-c2cccc(S(N)(=O)=O)c2)c2scc(-c3ccc(F)c(Cl)c3)c12 | 5130 nM | 15700 nM
CCN(c1cc(C#CCN2CCOCC2)cc(C(=O)NCc2c(C)cc(C)[nH]c2=O)c1C)C1CCC(N(C)CCOC)CC1 (stereo not given) | > 100000 nM | > 100000 nM

SMILES | GI50 | TGI
C[C@@H]1COCCN1c1cc(C2(O)C[C@H]3CC[C@@H](C2)O3)c2cnn(-c3ccn[nH]3)c2n1 (stereo not given in full) | 113 nM | 545 nM
CC(C)(C)c1ccc(NS(=O)(=O)c2ccc3nc(NC(=O)c4cnccn4)[nH]c3c2)cc1 | 712 nM | 4270 nM
O=c1oc2c(C(F)(F)F)cccc2cc1-c1csc(Nc2ccc(OCCF)cc2)n1 | 40.1 nM | 12400 nM
COc1c(B(O)O)cc(F)cc1-c1nc2ccc3[nH]ncc3c2c2c1CCCC2 | 1510 nM | 4210 nM
CNCCN=c1ccc2c3c1c(O)c1c(O)ccc(=O)c1c3[nH]n2CCNCCO | 63.4 nM | 435 nM
Cc1ccc(-c2cc(O)c(-c3ccc(C)cc3C)cc2O)c(C)c1 | 1750 nM | 13500 nM
O=C1OCC2=C1C(c1ccccc1)c1cc3c(cc1N2CCO)OCCO3 (stereo not given) | 138 nM | 959 nM
Cc1cccc(Cc2cnc(NC(=O)CCc3ccc(C)o3)s2)c1 | 112 nM | 6560 nM
CCN(CC)c1ccc(/C=C/C=C2\NC(=O)NC2=O)cc1 | 1820 nM | 7260 nM
CCN(Cc1c(Cl)cccc1Cl)c1ccc(CO)c(Cl)c1 | – | 33 nM
O=C(CCCCC(=O)N/N=C\c1ccccc1O)N/N=C\c1ccccc1O | 2630 nM | > 100000 nM
Cc1c(Cl)cccc1NC(=O)c1sc2nc3c(cc2c1N)CCCCC3 | 165 nM | 29600 nM
C=C1C(=O)O[C@H]2[C@H]1CC/C(COC(=O)NCc1ccc(Cn3c(=O)sn(-c4ccccc4)c3=O)cc1)=C\CC[C@@]1(C)O[C@@H]21 | 1170 nM | 2850 nM
CC(=C/c1ccccc1)/C=C1/NC(=S)N(/C=C2\C(=O)Oc3ccccc3C2=O)C1=O | 26900 nM | > 100000 nM
COc1cc(-c2csc(NC(=O)Nc3cc(Cl)cc(Cl)c3)n2)cc(OC)c1OC | 1670 nM | 3820 nM
COc1ccc(Cn2cc3c(c2-c2cc(OC)c(OC)c(OC)c2)CCc2cnoc2-3)cc1 | 171 nM | 622 nM
Cc1cc(C(=O)c2ccccc2)c(C)c2c1[nH]c1ccc(Cl)cc12 | 33.9 nM | 1120 nM
CN(C)CCCn1c(-c2nonc2N)nc2cnccc21 | – | > 25000 nM
N#CC1C=Cc2c(ccc3ccccc23)N1C(=O)c1ccccc1 (stereo not given) | 43.2 nM | 218 nM
